Laboratory results taken from patent US10954214B2 (Janssen Pharmaceutica NV, priority 2016, dated 2021).
pIC50: −log10 of the molar value.

Tests used:
[1] = test system: IL6 secretion by OCI-LY3 ABC-DLBCL cells; assay: Human IL6 Mesoscale assay (OCI-LY3); assay type: cell-based; settings: Homo sapiens, 24 h
In short: (§1)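 100,000 cells/well treated with compound in 9 twofold steps from 15 μM to 58.6 nM (0.3% DMSO) for 24 h at 37° C; supernatant cytokine measured by MSD electrochemiluminescence sandwich immunoassay. DMSO wells set maximum signal, BTK inhibitor RN486 (30 nM to 131 pM) set maximum inhibition.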

[2] = test system: IL10 secretion by TMD8 ABC-DLBCL cells; assay: Human IL10 Mesoscale assay (TMD-8); assay type: cell-based; settings: Homo sapiens, TMD8; TMD-8 cells, 24 h
In short: as §1

[3] = test system: IL10 secretion by OCI-LY3 ABC-DLBCL cells; assay: Human IL10 Mesoscale assay (OCI-LY3); assay type: cell-based; settings: Homo sapiens, 24 h
In short: as §1

[4] = target: full-length MALT1 protein (Strep-MALT1(1-824)-His) (Homo sapiens (Human), UniProt Q9UDY8); assay: MALT1 Biochemical Protease Assay (Ac-LRSR-AMC substrate); settings: 10 nM FL MALT1, 200 μM Ac-LRSR-AMC, 4 h at RT; read-out: MALT1_Biochemical activity (Ac-LRSR-amc) IC50
In short: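 Full-length MALT1 pre-incubated with compounds (30 μM to 0.5 nM, 11 threefold steps) for 50 min at RT. After Ac-LRSR-AMC was added, the reaction ran 4 h at RT and AMC fluorescence was read. IC50 and Hill slope from curve fitting against no-enzyme and no-compound controls.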

[5] = test system: IL6 secretion by TMD8 ABC-DLBCL cells; assay: Human IL6 Mesoscale assay (TMD-8); assay type: cell-based; settings: Homo sapiens, TMD8; TMD-8 cells, 24 h
In short: as §1

full-length MALT1 protein (Strep-MALT1(1-824)-His), sequence (Q9UDY8 whole entry): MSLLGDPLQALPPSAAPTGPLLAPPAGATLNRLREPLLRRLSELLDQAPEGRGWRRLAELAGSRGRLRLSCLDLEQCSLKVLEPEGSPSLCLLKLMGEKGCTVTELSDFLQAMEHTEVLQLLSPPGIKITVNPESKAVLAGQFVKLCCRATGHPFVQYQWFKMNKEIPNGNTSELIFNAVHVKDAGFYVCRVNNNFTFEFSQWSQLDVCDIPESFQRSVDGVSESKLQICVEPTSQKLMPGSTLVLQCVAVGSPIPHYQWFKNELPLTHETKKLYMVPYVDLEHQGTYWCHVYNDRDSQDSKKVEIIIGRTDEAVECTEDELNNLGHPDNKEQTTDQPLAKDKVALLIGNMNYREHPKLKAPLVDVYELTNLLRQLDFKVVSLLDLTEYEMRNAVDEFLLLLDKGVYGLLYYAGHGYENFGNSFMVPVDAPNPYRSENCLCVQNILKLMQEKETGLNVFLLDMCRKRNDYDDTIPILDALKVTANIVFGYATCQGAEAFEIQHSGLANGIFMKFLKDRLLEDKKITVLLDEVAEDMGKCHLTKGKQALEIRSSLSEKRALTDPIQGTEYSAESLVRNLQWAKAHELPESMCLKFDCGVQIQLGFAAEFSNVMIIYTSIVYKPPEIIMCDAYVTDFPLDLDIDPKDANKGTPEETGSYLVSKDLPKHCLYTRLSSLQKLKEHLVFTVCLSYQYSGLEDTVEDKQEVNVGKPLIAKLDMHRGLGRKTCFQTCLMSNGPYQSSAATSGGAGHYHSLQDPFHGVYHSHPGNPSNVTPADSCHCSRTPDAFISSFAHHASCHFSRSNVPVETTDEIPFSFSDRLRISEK

Row | Compound | pIC50 [1] | pIC50 [2] | pIC50 [3] | pIC50 [4] | pIC50 [5]
1 | Cc1nc(-n2cccn2)c(Cl)cc1NC(=O)c1cnn(-c2cccc3nnsc23)c1C(F)(F)F [Cpd 303, 1-(benzo[d][1,2,3]thiadiazol-7-yl)-N-(5-chloro-2-methyl-6-(1H-pyrazol-1-yl)pyridin-3-yl)-5-(trifluoromethyl)-1H-pyrazole-4-carboxamide] | 6.60 | 6.76 | 6.56 | 6.55 | 6.63
2 | CNC(=O)c1ncc(-n2ncc(C(=O)Nc3cnc(-n4nccn4)c(Cl)c3)c2C(F)(F)F)c2ccsc12 [Cpd 392, 4-(4-((5-chloro-6-(2H-1,2,3-triazol-2-yl)pyridin-3-yl)carbamoyl)-5-(trifluoromethyl)-1H-pyrazol-1-yl)-N-methylthieno[2,3-c]pyridine-7-carboxamide] | 7.59 | 6.70 | 7.77 | 7.59 | 6.77
3 | CC(C)(C)OC(=O)N1CCC1c1nccc2c(-n3ncc(C(=O)Nc4cnc(-n5nccn5)c(Cl)c4)c3C(F)(F)F)cccc12 (stereo not shown) [Cpd 383, tert-butyl 2-(5-(4-((5-chloro-6-(2H-1,2,3-triazol-2-yl)pyridin-3-yl)carbamoyl)-5-(trifluoromethyl)-1H-pyrazol-1-yl)isoquinolin-1-yl)azetidine-1-carboxylate] | 7.57 | 6.98 | 7.44 | 5.00 | 7.02
4 | O=C1COC(c2ncc(-n3ncc(C(=O)Nc4cnc(-n5nccn5)c(Cl)c4)c3C(F)(F)F)c3ccccc23)C1 (stereo not shown) [Cpd 370, N-(5-chloro-6-(2H-1,2,3-triazol-2-yl)pyridin-3-yl)-1-(1-(4-oxotetrahydrofuran-2-yl)isoquinolin-4-yl)-5-(trifluoromethyl)-1H-pyrazole-4-carboxamide] | 7.89 | 7.34 | 8.00 | 6.97 | 7.27
5 | Cn1ncc2cccc(-n3ncc(C(=O)Nc4cnc(-n5nccn5)c(C#N)c4)c3C(F)(F)F)c21 [Cpd 260, N-(5-cyano-6-(2H-1,2,3-triazol-2-yl)pyridin-3-yl)-1-(1-methyl-1H-indazol-7-yl)-5-(trifluoromethyl)-1H-pyrazole-4-carboxamide] | < 5.52 | < 5.52 | < 5.52 | 6.69 | < 5.52
6 | N#Cc1cc(NC(=O)c2cnn(-c3cnc4ccccn34)c2C(F)(F)F)cnc1-n1nccn1 [Cpd 189, N-(5-cyano-6-(2H-1,2,3-triazol-2-yl)pyridin-3-yl)-1-(imidazo[1,2-a]pyridin-3-yl)-5-(trifluoromethyl)-1H-pyrazole-4-carboxamide] | 7.41 | 7.20 | 7.57 | 7.11 | 6.97
7 | O=C(Nc1cnc(-n2nccn2)c(Cl)c1)c1cnn(-c2cccc3c[n+]([O-])ccc23)c1C(F)(F)F [Cpd 407, 5-(4-((5-chloro-6-(2H-1,2,3-triazol-2-yl)pyridin-3-yl)carbamoyl)-5-(trifluoromethyl)-1H-pyrazol-1-yl)isoquinoline 2-oxide] | 7.47 | 7.00 | 7.40 | 7.68 | 6.96
8 | Cn1ccc(-c2ncc(NC(=O)c3cnn(-c4ccc(F)c5ncccc45)c3C(F)(F)F)cc2C#N)n1 [Cpd 268, N-(5-cyano-6-(1-methyl-1H-pyrazol-3-yl)pyridin-3-yl)-1-(8-fluoroquinolin-5-yl)-5-(trifluoromethyl)-1H-pyrazole-4-carboxamide] | 7.02 | 6.64 | 7.20 | 6.81 | 6.80
9 | NC(=O)c1cnn(-c2ccc(NC(=O)c3cnn(-c4cccc5ncccc45)c3C(F)(F)F)cc2Cl)n1 [Cpd 244, 2-(2-chloro-4-(1-(quinolin-5-yl)-5-(trifluoromethyl)-1H-pyrazole-4-carboxamido)phenyl)-2H-1,2,3-triazole-4-carboxamide] | 6.76 | 6.61 | 6.81 | 6.40 | 6.13
10 | Cn1ncc2c(-n3ncc(C(=O)Nc4cnc(-n5nccn5)c(C#N)c4)c3C(F)(F)F)ccnc21 [Cpd 241, N-(5-cyano-6-(2H-1,2,3-triazol-2-yl)pyridin-3-yl)-1-(1-methyl-1H-pyrazolo[3,4-b]pyridin-4-yl)-5-(trifluoromethyl)-1H-pyrazole-4-carboxamide] | 7.29 | 7.16 | 7.43 | 6.25 | 7.31
11 | CN(C)c1ncc(-n2ncc(C(=O)Nc3cnc(-n4nccn4)c(Cl)c3)c2C(F)(F)F)c2ccccc12 [Cpd 322, N-(5-chloro-6-(2H-1,2,3-triazol-2-yl)pyridin-3-yl)-1-(1-(dimethylamino)isoquinolin-4-yl)-5-(trifluoromethyl)-1H-pyrazole-4-carboxamide] | 6.83 | 6.15 | 6.87 | 6.67 | 6.25
12 | Cc1cc(NC(=O)c2cnn(-c3cccc4ncccc34)c2C(F)(F)F)ccc1-n1cc(CN)cn1 [Cpd 238, N-(4-(4-(aminomethyl)-1H-pyrazol-1-yl)-3-methylphenyl)-1-(quinolin-5-yl)-5-(trifluoromethyl)-1H-pyrazole-4-carboxamide] | 7.36 | 7.30 | 7.46 | 6.17 | 7.49
13 | O=C(Nc1cnc(-n2nccn2)c(Cl)c1)c1cnn(-c2cccc3c2ccc[n+]3[O-])c1C(F)(F)F [Cpd 408, 5-(4-((5-chloro-6-(2H-1,2,3-triazol-2-yl)pyridin-3-yl)carbamoyl)-5-(trifluoromethyl)-1H-pyrazol-1-yl)quinoline 1-oxide] | 7.27 | 6.79 | 7.09 | 6.95 | 6.85
14 | COc1nccc2c(-n3ncc(C(=O)Nc4cnc(-n5nccn5)c(Cl)c4)c3C(F)(F)F)cccc12 [Cpd 243, N-(5-chloro-6-(2H-1,2,3-triazol-2-yl)pyridin-3-yl)-1-(1-methoxyisoquinolin-5-yl)-5-(trifluoromethyl)-1H-pyrazole-4-carboxamide] | 6.92 | 6.47 | 6.89 | 6.38 | 6.44
15 | O=C(Nc1cnc(-n2nccn2)c(Cl)c1)c1cnn(-c2cccc3cnccc23)c1C(F)(F)F [Cpd 449, N-(5-chloro-6-(2H-1,2,3-triazol-2-yl)pyridin-3-yl)-1-(isoquinolin-5-yl)-5-(trifluoromethyl)-1H-pyrazole-4-carboxamide] | 7.00 | 7.01 | 7.17 | 7.64 | 7.11
16 | C[C@@H](O)c1nccc2c(-n3ncc(C(=O)Nc4cnc(-n5nccn5)c(Cl)c4)c3C(F)(F)F)cccc12 (single isomer, unassigned) [Cpd 444, (*R)—N-(5-chloro-6-(2H-1,2,3-triazol-2-yl)pyridin-3-yl)-1-(1-(1-hydroxyethyl)isoquinolin-5-yl)-5-(trifluoromethyl)-1H-pyrazole-4-carboxamide] | 7.41 | 7.20 | 7.57 | 7.24 | 6.97
17 | O=C(Nc1cnc(-n2nccn2)c(Cl)c1)c1cnn(-c2cccc3nc(F)ccc23)c1C(F)(F)F [Cpd 277, N-(5-chloro-6-(2H-1,2,3-triazol-2-yl)pyridin-3-yl)-1-(2-fluoroquinolin-5-yl)-5-(trifluoromethyl)-1H-pyrazole-4-carboxamide] | 7.05 | 7.02 | 7.06 | 6.88 | 6.77
18 | CNC(=O)c1ncc(NC(=O)c2cnn(-c3cccc4c(=O)[nH]ccc34)c2C(F)(F)F)cc1Cl [Cpd 352, 3-chloro-N-methyl-5-(1-(1-oxo-1,2-dihydroisoquinolin-5-yl)-5-(trifluoromethyl)-1H-pyrazole-4-carboxamido)picolinamide] | 6.89 |  | 7.06 | 7.36 | 
19 | N#Cc1cc(NC(=O)c2cnn(-c3ccnc4cccnc34)c2C(F)(F)F)cnc1-n1nccn1 [Cpd 269, N-(5-cyano-6-(2H-1,2,3-triazol-2-yl)pyridin-3-yl)-1-(1,5-naphthyridin-4-yl)-5-(trifluoromethyl)-1H-pyrazole-4-carboxamide] | 7.08 |  | 7.07 | 6.81 | 
20 | N#Cc1cc(NC(=O)c2cnn(-c3cnc(F)c4ccccc34)c2C(F)(F)F)cnc1-n1nccn1 [Cpd 289, N-(5-cyano-6-(2H-1,2,3-triazol-2-yl)pyridin-3-yl)-1-(1-fluoroisoquinolin-4-yl)-5-(trifluoromethyl)-1H-pyrazole-4-carboxamide] | 6.88 |  | 6.91 | 7.04 | 
21 | N#Cc1cc(NC(=O)c2cnn(-c3ccnc4cnccc34)c2C(F)(F)F)cnc1-n1nccn1 [Cpd 276, N-(5-cyano-6-(2H-1,2,3-triazol-2-yl)pyridin-3-yl)-1-(1,7-naphthyridin-4-yl)-5-(trifluoromethyl)-1H-pyrazole-4-carboxamide] | 6.73 |  | 6.93 | 6.86 | 
